According to patent US20130226069A1, “ACNE THERAPEUTIC AGENT AND SEBUM SECERNENT INHIBITOR WHICH COMPRISE INDOLE-3-ALKYLCARBO XYLICACID, AND KITS FOR PHOTODYNAMIC THERAPY CONTAINING THE SAME” (WELSKIN CO., LTD., priority 2007, published 2013):

How the values were obtained:
[1] = Sebum secretion inhibition by IAA and IPL, half-face; type: in vivo
Protocol: As described in Example 2, IAA was applied to only half of face and 20 J of IPL was irradiated. The face was irradiated 3 times at 2 weeks intervals and the amount of sebum secretion was measured.

P. acnes 706486 = assay: Bacteriocidal effect of IAA with or without IPL irradiation on P. acnes, colony count; type: cell-based, Propionibacterium acnes
Protocol: (§1) P. acnes 706486 and S. aureus W-1-14 was used for this experiment. Mueller Hinton II broth (Becton, Dickinson Co., Sparks, U.S.A) was used for culture of bacteria. The cultured S. aureus colony was dissolved with phosphate buffered saline (PBS, Invitrogen Co., NY, U.S.A) such that the McFarland turbidity became 0.5. The resultant bacterial solution was at the concentration of […]. Then, the bacterial solution was further diluted to the concentration of 1×10^8/ml and 10 μl of the bacterial solution was spread onto the Mueller Hinton II agar (Becton, Dickinson Co., Sparks, U.S.A) plate followed by drying in clean bench for 30 min. IAA was dissolved with Dulbecco's phosphate buffered saline (DPBS, Invitrogen Co., NY, U.S.A) to obtain samples of IAA concentration of 20 mM, 10 mM, 5 mM, 1 mM and 0.5 mM. Three minutes after adding 4 ml of 0 mM, 0.5 mM, 1 mM, 5 mM, 10 mM, and 20 mM IAA solution to 6 bacterial solution inoculated mediums respectively, Intermittent Pulse Laser (IPL, Ellipse Flex DDD, Denmark) was irradiated to the mediums. 10 J/cm^2 of the IPL of wavelength of 400 nm to 720 nm was irradiated to the mediums, using an applicator equipped with a filter. One minute after IPL irradiation, the mediums were washed for two times with PBS and incubated at 37° C. for 24 hrs and then the number of colonies was counted respectively. Four minutes after adding 4 ml of 0 mM, 0.5 mM, 1 mM, 5 mM, 10 mM, and 20 mM IAA solution to another 6 bacterial solution inoculated mediums, the mediums were treated as the above-mentioned process except that IPL was not irradiated, and then the number of colonies was counted respectively. The above-mentioned process was repeated except that P. acnes inoculated mediums were employed in place of S. aureus inoculated mediums and cultured in an anaerobic chamber substituted with nitrogen, and then the number of colonies was counted.

[2] = Improvement of acne by IAA and light, half-face, count of inflammatory lesions; type: in vivo
Description: IAA was applied to only half of face and 20 J of IPL was irradiated. The face was irradiated 3 times at 2 weeks intervals and the number of inflammatory lesions was counted.

S. aureus W-1-14 = assay: Bacteriocidal effect of IAA with or without IPL irradiation on S. aureus, colony count; type: cell-based, Staphylococcus aureus
Protocol: as §1

[3] = IAA with IPL, irradiated 3 times at 2 weeks intervals

O=C(O)Cc1c[nH]c2ccccc12 [IAA, Indole-3-acetic acid]
sebum secretion (mean ± SD), T1 ([1]; IAA + IPL 20 J, after 2 weeks, n = 14, baseline T0 99.64 ± 56.93): 114.71 ± 63.83 | sebum secretion (mean ± SD), T2 ([1]; IAA + IPL 20 J, after 4 weeks, n = 14, baseline T0 99.64 ± 56.93): 70.43 ± 42.80 | sebum secretion (mean ± SD), T3 ([1]; IAA + IPL 20 J, after 6 weeks, n = 14, baseline T0 99.64 ± 56.93): 65.79 ± 27.90 | Change of sebum secretion T1-T0 (mean ± SD) ([1]; IAA + IPL, 2 weeks versus baseline, p 0.433): 15.07 ± 69.70 | Change of sebum secretion T2-T0 (mean ± SD) ([1]; IAA + IPL, 4 weeks versus baseline, p 0.032): −29.21 ± 45.67 | Change of sebum secretion T3-T0 (mean ± SD) ([1]; IAA + IPL, 6 weeks versus baseline, p 0.015): −33.86 ± 44.98 | inhibitory effect of sebum secretion [1, 3]: significant inhibitory effect of sebum secretion | number of colonies (P. acnes 706486; 5 mM or more IAA solution, IPL not irradiated): 68 % of control group | growth of bacteria (P. acnes 706486; 20 mM IAA solution, with IPL irradiation): no growth of bacteria | inhibitory effects on P. acnes proliferation (P. acnes 706486; IAA with IPL irradiation, 10 J/cm^2, 400 nm to 720 nm): dramatic inhibitory effects | Number of inflammatory lesion (mean ± SD), T1 ([2]; IAA + IPL 20 J, after 2 weeks, n = 14, baseline T0 16.21 ± 9.18): 15.50 ± 9.03 | Number of inflammatory lesion (mean ± SD), T2 ([2]; IAA + IPL 20 J, after 4 weeks, n = 14, baseline T0 16.21 ± 9.18): 13.93 ± 8.54 | Number of inflammatory lesion (mean ± SD), T3 ([2]; IAA + IPL 20 J, after 6 weeks, n = 14, baseline T0 16.21 ± 9.18): 13.93 ± 8.30 | Change in number of inflammatory lesion T1-T0 (mean ± SD) ([2]; IAA + IPL, 2 weeks versus baseline, p 0.246): −0.71 ± 2.20 | Change in number of inflammatory lesion T2-T0 (mean ± SD) ([2]; IAA + IPL, 4 weeks versus baseline, p 0.024): −2.29 ± 3.36 | Change in number of inflammatory lesion T3-T0 (mean ± SD) ([2]; IAA + IPL, 6 weeks versus baseline, p 0.026): −2.29 ± 3.41 | improvement of acne (number of inflammatory lesions) [2, 3]: significant improvement | number of colonies (S. aureus W-1-14; 20 mM IAA solution, without IPL irradiation): 60 % of control group | number of colonies (S. aureus W-1-14; IPL irradiation and 0.5 mM IAA solution): 63 % of control group | number of colonies (S. aureus W-1-14; IPL irradiation and 1 mM IAA solution): 32 % of control group
